Data as given in patent US20100292224A1, “ISOTHIAZOLIDINE 1,1-DIOXIDE AND TETRAHYDRO-2H-1,2-THIAZINE 1,1-DIOXIDE DERIVATIVES AS P2X7 MODULATORS” (GLAXO GROUP LIMITED, priority 2007, published 2010).

Target: T1, human recombinant P2X7 receptors (Homo sapiens, UniProt Q99572)
T1 construct: expressed in transfected cells
T1 sequence (Q99572 1-595): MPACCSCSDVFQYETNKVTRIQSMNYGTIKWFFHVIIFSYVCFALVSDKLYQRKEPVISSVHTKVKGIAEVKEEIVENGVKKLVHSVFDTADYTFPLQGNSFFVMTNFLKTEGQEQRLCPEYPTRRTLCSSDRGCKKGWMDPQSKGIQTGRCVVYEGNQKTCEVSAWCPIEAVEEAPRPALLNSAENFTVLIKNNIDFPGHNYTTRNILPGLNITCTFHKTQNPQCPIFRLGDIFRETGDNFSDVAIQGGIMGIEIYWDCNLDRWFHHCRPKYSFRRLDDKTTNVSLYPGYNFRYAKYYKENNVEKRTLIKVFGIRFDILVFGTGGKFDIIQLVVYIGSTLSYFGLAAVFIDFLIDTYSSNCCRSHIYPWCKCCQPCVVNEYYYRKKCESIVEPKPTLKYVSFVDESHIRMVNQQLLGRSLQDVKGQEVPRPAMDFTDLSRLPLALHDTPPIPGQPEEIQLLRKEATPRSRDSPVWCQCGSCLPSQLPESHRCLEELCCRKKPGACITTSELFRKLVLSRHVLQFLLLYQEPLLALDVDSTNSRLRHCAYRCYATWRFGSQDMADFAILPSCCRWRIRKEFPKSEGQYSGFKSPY
Experiment: Ethidium Accumulation Assay
Type: cell-based
Details: HEK293 cells stably expressing human recombinant P2X7; blocking 1 mM ATP response; typically mean of more than one measurement; 'about' values; read-out: pIC50 in the Ethidium Accumulation Assay or a slightly modified version thereof (converted)
Method: Studies were performed using NaCl assay buffer of the following composition: 140 mM NaCl, 10 mM HEPES [4-(2-hydroxyethyl)-1-piperazine-1-ethanesulfonic acid], 5 mM N-methyl-D-glucamine, 5.6 mM KCl, 10 mM D-glucose, 0.5 mM CaCl2(pH 7.4).
Human Embryonic Kidney (HEK) 293 cells, stably expressing human recombinant P2X7 receptors, were grown in poly-D-lysine pretreated 96 well plates for 18-24 hours. (The cloning of the human P2X7 receptor is described in U.S. Pat. No. 6,133,434, e.g. see Example 3 therein). The cells were washed twice with 350 μl of the assay buffer, before addition of 50 μl of the assay buffer containing the putative P2X7 receptor antagonist compound. (A small amount of dimethyl sulfoxide, for initially dissolving the compound, is optionally used and present in this 50 μl test compound sample.) The cells were then incubated at room temperature (19-21° C.) for 30 min before addition of ATP and ethidium (100 μM final assay concentration). The ATP concentration was chosen to be close to the EC80 for the receptor type and was 1 mM for studies on the human P2X7 receptor. Incubations were continued for 8 or 16 min and were terminated by addition of 25 μl of 1.3M sucrose containing 4 mM of the P2X7 receptor antagonist Reactive Black 5 (Aldrich). Cellular accumulation of ethidium was determined by measuring fluorescence (excitation wavelength of 530 nm and emission wavelength of 620 nm) from below the plate with a Can berra Packard Fluorocount (14 Station Road, Pangbourne, Reading, Berkshire RG8 7AN, United Kingdom) or a FlexStation II 384 from Molecular Molecular Devices (660-665 Eskdale Road, Wokingham, Berkshire RG41 5TS, United Kingdom). Antagonist plC50 values for blocking ATP responses were determined using iterative curve fitting techniques.

SMILES | IC50 [µM]
CN1C(C(=O)NCc2ccc(Cl)cc2Cl)CCCS1(=O)=O (stereo not shown) [Example 35, N-[(2,4-dichlorophenyl)methyl]-2-methyltetrahydro-2H-1,2-thiazine-3-carboxamide 1,1-dioxide] | 0.01 to 0.316
CC(C)N1C(C(=O)NCc2ccccc2Cl)CCCS1(=O)=O (stereo not shown) [Example 44, N-[(2-chlorophenyl)methyl]-2-(1-methylethyl)tetrahydro-2H-1,2-thiazine-3-carboxamide 1,1-dioxide] | 3.98 to 15.8
CC(C)N1C(C(=O)NCc2ccc(F)cc2Cl)CCS1(=O)=O (stereo not shown) [Example 22, N-[(2-chloro-4-fluorophenyl)methyl]-2-(1-methylethyl)-3-isothiazolidinecarboxamide 1,1-dioxide] | 0.01 to 0.316
CC(C)N1C(C(=O)NCc2ccc(F)c(F)c2F)CCCS1(=O)=O (stereo not shown) [Example 46, 2-(1-methylethyl)-N-[(2,3,4-trifluorophenyl)methyl]tetrahydro-2H-1,2-thiazine-3-carboxamide 1,1-dioxide] | 3.98 to 15.8
CN1C(C(=O)NCc2ccc(Cl)cc2Cl)CCS1(=O)=O (stereo not shown) [Example 13, N-[(2,4-dichlorophenyl)methyl]-2-methyl-3-isothiazolidinecarboxamide 1,1-dioxide] | 0.01 to 0.316
CC(C)N1C(C(=O)NCc2ccc(F)cc2Cl)CCCS1(=O)=O (stereo not shown) [Example 43, N-[(2-chloro-4-fluorophenyl)methyl]-2-(1-methylethyl)tetrahydro-2H-1,2-thiazine-3-carboxamide 1,1-dioxide] | 3.98 to 15.8
CC(C)CN1C(C(=O)NCc2ccc(Cl)cc2Cl)CCS1(=O)=O (stereo not shown) [Example 4, N-[(2,4-dichlorophenyl)methyl]-2-(2-methylpropyl)-3-isothiazolidinecarboxamide 1,1-dioxide] | 0.01 to 0.316
CN1C(C(=O)NCc2ccc(F)cc2Cl)CCS1(=O)=O (stereo not shown) [Example 3, N-[(2-chloro-4-fluorophenyl)methyl]-2-methyl-3-isothiazolidinecarboxamide 1,1-dioxide] | 0.01 to 0.316
CC(C)N1C(C(=O)NCc2ccc(Cl)cc2Cl)CCS1(=O)=O (stereo not shown) [Example 27, N-[(2,4-dichlorophenyl)methyl]-2-(1-methylethyl)-3-isothiazolidinecarboxamide 1,1-dioxide] | 0.01 to 0.316
Cc1c(Cl)cccc1CNC(=O)C1CCS(=O)(=O)N1C(C)C (stereo not shown) [Example 18, N-[(3-chloro-2-methylphenyl)methyl]-2-(1-methylethyl)-3-isothiazolidinecarboxamide 1,1-dioxide] | 0.01 to 0.316
Cc1cccc(Cl)c1CNC(=O)C1CCCS(=O)(=O)N1C(C)C (stereo not shown) [Example 41, N-[(2-chloro-6-methylphenyl)methyl]-2-(1-methylethyl)tetrahydro-2H-1,2-thiazine-3-carboxamide 1,1-dioxide] | 3.98 to 15.8

The remaining lines, values ahead:

IC50 [µM] | SMILES
0.01 to 0.316 | Cc1c(Cl)cccc1CNC(=O)C1CCS(=O)(=O)N1C (stereo not shown) [Example 17, N-[(3-chloro-2-methylphenyl)methyl]-2-methyl-3-isothiazolidinecarboxamide 1,1-dioxide]
0.01 to 0.316 | CCN1C(C(=O)NCc2ccc(F)cc2Cl)CCS1(=O)=O (stereo not shown) [Example 15, N-[(2-chloro-4-fluorophenyl)methyl]-2-ethyl-3-isothiazolidinecarboxamide 1,1-dioxide]
3.98 to 15.8 | CCN1C(C(=O)NCc2ccccc2Cl)CCCS1(=O)=O (stereo not shown) [Example 39, N-[(2-chlorophenyl)methyl]-2-ethyltetrahydro-2H-1,2-thiazine-3-carboxamide 1,1-dioxide]
3.98 to 15.8 | CC(C)N1C(C(=O)NCc2ccc(F)cc2C(F)(F)F)CCCS1(=O)=O (stereo not shown) [Example 47, N-{[4-fluoro-2-(trifluoromethyl)phenyl]methyl}-2-(1-methylethyl)tetrahydro-2H-1,2-thiazine-3-carboxamide 1,1-dioxide]
0.01 to 0.316 | CCN1C(C(=O)NCc2ccc(F)c(F)c2Cl)CCS1(=O)=O (stereo not shown) [Example 31, N-[(2-chloro-3,4-difluorophenyl)methyl]-2-ethyl-3-isothiazolidinecarboxamide 1,1-dioxide]
0.01 to 0.316 | CN1C(C(=O)NCc2cccc(C(F)(F)F)c2Cl)CCS1(=O)=O (stereo not shown) [Example 29, N-{[2-chloro-3-(trifluoromethyl)phenyl]methyl}-2-methyl-3-isothiazolidinecarboxamide 1,1-dioxide]
0.01 to 0.316 | CCN1C(C(=O)NCc2ccc(Cl)cc2Cl)CCCS1(=O)=O (stereo not shown) [Example 36, N-[(2,4-dichlorophenyl)methyl]-2-ethyltetrahydro-2H-1,2-thiazine-3-carboxamide 1,1-dioxide]
0.01 to 0.316 | CCN1C(C(=O)NCc2cccc(C(F)(F)F)c2Cl)CCS1(=O)=O (stereo not shown) [Example 32, N-{[2-chloro-3-(trifluoromethyl)phenyl]methyl}-2-ethyl-3-isothiazolidinecarboxamide 1,1-dioxide]
3.98 to 15.8 | CC(C)CN1C(C(=O)NCc2ccccc2Cl)CCS1(=O)=O (stereo not shown) [Example 11, N-[(2-chlorophenyl)methyl]-2-(2-methylpropyl)-3-isothiazolidinecarboxamide 1,1-dioxide]
0.01 to 0.316 | CN1C(C(=O)NCc2ccc(F)c(F)c2Cl)CCS1(=O)=O (stereo not shown) [Example 30, N-[(2-chloro-3,4-difluorophenyl)methyl]-2-methyl-3-isothiazolidinecarboxamide 1,1-dioxide]
0.01 to 0.316 | CCN1C(C(=O)NCc2cccc(Cl)c2C)CCS1(=O)=O (stereo not shown) [Example 20, N-[(3-chloro-2-methylphenyl)methyl]-2-ethyl-3-isothiazolidinecarboxamide 1,1-dioxide]
0.01 to 0.316 | CCN1C(C(=O)NCc2ccc(F)cc2C(F)(F)F)CCS1(=O)=O (stereo not shown) [Example 21, 2-ethyl-N-{[4-fluoro-2-(trifluoromethyl)phenyl]methyl}-3-isothiazolidinecarboxamide 1,1-dioxide]
3.98 to 15.8 | CN1C(C(=O)NCc2ccc(F)cc2C(F)(F)F)CCCS1(=O)=O (stereo not shown) [Example 48, N-{[4-fluoro-2-(trifluoromethyl)phenyl]methyl}-2-methyltetrahydro-2H-1,2-thiazine-3-carboxamide 1,1-dioxide]
0.01 to 0.316 | CCN1C(C(=O)NCc2ccc(Cl)cc2Cl)CCS1(=O)=O (stereo not shown) [Example 24, N-[(2,4-dichlorophenyl)methyl]-2-ethyl-3-isothiazolidinecarboxamide 1,1-dioxide]
